Experimental data: ChEMBL document CHEMBL1145450, “Platinum complexes can inhibit matrix metalloproteinase activity: platinum-diethyl[(methylsulfinyl)methyl]phosphonate complexes as inhibitors of matrix metalloproteinases 2, 3, 9, and 12” (J Med Chem, 2007)

Experiments:
Stromelysin-1 = Stromelysin-1 (Homo sapiens, UniProt P08254); assay: Inhibition of human recombinant MMP3 after 1 hr
[1] = target: Matrix metalloproteinase-9 (Homo sapiens, UniProt P14780); assay: Inhibition of human recombinant MMP9 after 1 hr
Chain of Matrix metalloproteinase-9 (P14780 whole entry): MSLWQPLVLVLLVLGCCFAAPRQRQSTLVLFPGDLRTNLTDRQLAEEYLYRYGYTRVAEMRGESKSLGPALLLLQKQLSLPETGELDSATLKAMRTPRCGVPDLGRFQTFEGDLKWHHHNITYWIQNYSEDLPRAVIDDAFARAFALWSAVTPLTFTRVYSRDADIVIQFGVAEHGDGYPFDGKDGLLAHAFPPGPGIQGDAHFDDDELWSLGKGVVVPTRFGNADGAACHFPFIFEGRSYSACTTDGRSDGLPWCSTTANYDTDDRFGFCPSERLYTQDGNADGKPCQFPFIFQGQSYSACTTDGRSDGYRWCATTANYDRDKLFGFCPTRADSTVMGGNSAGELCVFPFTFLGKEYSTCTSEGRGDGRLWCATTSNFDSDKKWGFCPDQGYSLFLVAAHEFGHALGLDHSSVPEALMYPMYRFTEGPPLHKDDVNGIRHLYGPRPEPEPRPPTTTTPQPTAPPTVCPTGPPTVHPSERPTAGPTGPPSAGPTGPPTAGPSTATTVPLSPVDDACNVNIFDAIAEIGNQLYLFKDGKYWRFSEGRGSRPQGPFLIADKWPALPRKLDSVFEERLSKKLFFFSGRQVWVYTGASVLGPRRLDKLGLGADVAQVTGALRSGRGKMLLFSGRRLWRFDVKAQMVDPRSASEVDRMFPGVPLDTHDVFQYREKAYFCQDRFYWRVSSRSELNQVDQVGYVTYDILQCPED

[2] = target: Macrophage metalloelastase (Homo sapiens, UniProt P39900); assay: Inhibition of human recombinant MMP12 after 1 hr
Chain of Macrophage metalloelastase (P39900 whole entry): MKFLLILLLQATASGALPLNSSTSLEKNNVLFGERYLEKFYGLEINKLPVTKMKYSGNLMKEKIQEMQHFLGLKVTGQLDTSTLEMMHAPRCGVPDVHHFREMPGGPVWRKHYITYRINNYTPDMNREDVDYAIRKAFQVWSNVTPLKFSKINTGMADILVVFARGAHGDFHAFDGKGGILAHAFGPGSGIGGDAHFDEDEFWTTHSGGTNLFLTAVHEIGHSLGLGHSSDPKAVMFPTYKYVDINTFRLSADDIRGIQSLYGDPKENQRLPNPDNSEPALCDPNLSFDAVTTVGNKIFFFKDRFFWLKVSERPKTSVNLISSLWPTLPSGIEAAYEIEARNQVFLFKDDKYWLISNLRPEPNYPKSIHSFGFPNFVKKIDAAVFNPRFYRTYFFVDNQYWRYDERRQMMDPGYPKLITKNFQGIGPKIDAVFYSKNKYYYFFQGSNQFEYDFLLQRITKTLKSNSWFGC

[3] = target: 72 kDa type IV collagenase (Homo sapiens, UniProt P08253); assay: Inhibition of human recombinant MMP2 after 1 hr
Chain of 72 kDa type IV collagenase (P08253 whole entry): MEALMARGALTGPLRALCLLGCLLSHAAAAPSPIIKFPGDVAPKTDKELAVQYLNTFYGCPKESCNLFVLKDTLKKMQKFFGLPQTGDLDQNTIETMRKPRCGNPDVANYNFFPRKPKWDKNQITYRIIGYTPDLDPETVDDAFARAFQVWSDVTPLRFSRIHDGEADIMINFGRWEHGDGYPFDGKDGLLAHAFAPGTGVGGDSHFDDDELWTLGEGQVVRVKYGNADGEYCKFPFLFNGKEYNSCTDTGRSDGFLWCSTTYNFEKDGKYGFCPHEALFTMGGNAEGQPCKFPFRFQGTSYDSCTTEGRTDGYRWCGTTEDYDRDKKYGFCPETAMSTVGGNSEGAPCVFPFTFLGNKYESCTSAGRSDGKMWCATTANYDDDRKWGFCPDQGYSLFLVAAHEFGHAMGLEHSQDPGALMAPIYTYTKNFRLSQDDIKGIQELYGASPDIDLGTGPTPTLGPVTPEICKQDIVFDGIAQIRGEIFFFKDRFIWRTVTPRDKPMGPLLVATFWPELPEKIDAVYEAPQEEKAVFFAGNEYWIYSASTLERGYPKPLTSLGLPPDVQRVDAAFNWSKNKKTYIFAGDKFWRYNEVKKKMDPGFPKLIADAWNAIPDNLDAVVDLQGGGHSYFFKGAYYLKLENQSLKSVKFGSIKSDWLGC

Chain of Stromelysin-1 (P08254 whole entry): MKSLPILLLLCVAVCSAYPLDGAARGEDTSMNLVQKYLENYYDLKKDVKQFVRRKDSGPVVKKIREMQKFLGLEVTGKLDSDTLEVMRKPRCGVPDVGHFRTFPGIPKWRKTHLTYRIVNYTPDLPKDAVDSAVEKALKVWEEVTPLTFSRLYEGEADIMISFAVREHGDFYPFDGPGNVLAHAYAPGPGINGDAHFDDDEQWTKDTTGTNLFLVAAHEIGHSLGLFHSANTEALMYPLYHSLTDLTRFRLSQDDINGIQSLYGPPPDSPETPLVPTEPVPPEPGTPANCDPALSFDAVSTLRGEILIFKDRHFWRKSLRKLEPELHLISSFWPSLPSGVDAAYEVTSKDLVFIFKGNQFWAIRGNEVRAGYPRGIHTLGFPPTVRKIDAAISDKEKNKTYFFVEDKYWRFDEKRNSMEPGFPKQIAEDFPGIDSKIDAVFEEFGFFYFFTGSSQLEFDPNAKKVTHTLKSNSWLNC

O=P(O)(O)C(Cl)(Cl)P(=O)(O)O [CLODRONIC ACID]
IC50 (Stromelysin-1): 300 µM | IC50 [1]: 320 µM | IC50 [2]: 121 µM | IC50 [3]: 145 µM
